{"source": "the supplement of paper PMC10307832", "assay_in_all_cases": "relative viability (nuclei count vs DMSO), 5 days (fraction); higher = more cells survive", "key": {"[1]": {"system": "NCI-H2347", "how_it_was_run": "(§1)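 Relative viability equals treated-well nuclei counts divided by vehicle-well nuclei counts. Counts came from 4× images of lung cancer cell lines grown in 1536-well plates for 5 days after pin-tool dosing on the day after seeding. Dosing used one drug alone or a fixed anchor-drug dose plus five library-drug doses (not always all listed) in √10 steps, and values are medians of duplicate plates.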"}, "[2]": {"system": "NCI-H3122", "how_it_was_run": "as §1"}, "[3]": {"system": "NCI-H596", "how_it_was_run": "as §1"}, "[4]": {"system": "RERF-LC-KJ", "how_it_was_run": "as §1"}, "[5]": {"system": "NCI-H1792", "how_it_was_run": "as §1"}, "[6]": {"system": "NCI-H520", "how_it_was_run": "as §1"}, "[7]": {"system": "NCI-H1563", "how_it_was_run": "as §1"}, "[8]": {"system": "NCI-H1355", "how_it_was_run": "as §1"}, "[9]": {"system": "PC-14", "how_it_was_run": "as §1"}, "[10]": {"system": "LXF-289", "how_it_was_run": "as §1"}, "[11]": {"system": "SK-MES-1", "how_it_was_run": "as §1"}, "[12]": {"system": "NCI-H661", "how_it_was_run": "as §1"}, "[13]": {"system": "NCI-H1651", "how_it_was_run": "as §1"}, "[14]": {"system": "LCLC-103H", "how_it_was_run": "as §1"}, "[15]": {"system": "NCI-H441", "how_it_was_run": "as §1"}, "[16]": {"system": "NCI-H460", "how_it_was_run": "as §1"}, "[17]": {"system": "NCI-H1915", "how_it_was_run": "as §1"}, "[18]": {"system": "NCI-H1755", "how_it_was_run": "as §1"}, "[19]": {"system": "NCI-H727", "how_it_was_run": "as §1"}, "[20]": {"system": "NCI-H322M", "how_it_was_run": "as §1"}}, "data": [{"smiles": "Cc1sc2c(c1C)C(c1ccc(Cl)cc1)=N[C@@H](CC(=O)OC(C)(C)C)c1nnc(C)n1-2", "note": "[JQ1] + C[C@]1(O)C[C@@H](c2nc(-c3ccc4ccc(-c5ccccc5)nc4c3)c3c(N)nccn32)C1 [Linsitinib] (partner 1 µM)", "values": [{"measurement": "relative viability", "setting": "[1]; first compound 0.04 µM", "value": 0.934}, {"measurement": "relative viability", "setting": "[1]; first compound 0.1265 µM", "value": 0.747}, {"measurement": "relative viability", "setting": "[1]; first compound 0.4 µM", "value": 0.743}, {"measurement": "relative viability", "setting": "[1]; first compound 1.265 µM", "value": 0.632}, {"measurement": "relative viability", "setting": "[1]; first compound 4 µM", "value": 0.45}, {"measurement": "relative viability", "setting": "[2]; first compound 0.04 µM", "value": 0.966}, {"measurement": "relative viability", "setting": "[2]; first compound 0.1265 µM", "value": 0.931}, {"measurement": "relative viability", "setting": "[2]; first compound 0.4 µM", "value": 0.97}, {"measurement": "relative viability", "setting": "[2]; first compound 1.265 µM", "value": 0.757}, {"measurement": "relative viability", "setting": "[2]; first compound 4 µM", "value": 0.625}, {"measurement": "relative viability", "setting": "[3]; first compound 0.04 µM", "value": 1.22}, {"measurement": "relative viability", "setting": "[3]; first compound 0.1265 µM", "value": 1.03}, {"measurement": "relative viability", "setting": "[3]; first compound 0.4 µM", "value": 0.587}, {"measurement": "relative viability", "setting": "[3]; first compound 1.265 µM", "value": 0.418}, {"measurement": "relative viability", "setting": "[3]; first compound 4 µM", "value": 0.361}, {"measurement": "relative viability", "setting": "[4]; first compound 0.04 µM", "value": 0.865}, {"measurement": "relative viability", "setting": "[4]; first compound 0.1265 µM", "value": 1.07}, {"measurement": "relative viability", "setting": "[4]; first compound 0.4 µM", "value": 0.91}, {"measurement": "relative viability", "setting": "[4]; first compound 1.265 µM", "value": 0.782}, {"measurement": "relative viability", "setting": "[4]; first compound 4 µM", "value": 0.631}, {"measurement": "relative viability", "setting": "[5]; first compound 0.04 µM", "value": 0.587}, {"measurement": "relative viability", "setting": "[5]; first compound 0.4 µM", "value": 0.569}, {"measurement": "relative viability", "setting": "[5]; first compound 1.265 µM", "value": 0.31}, {"measurement": "relative viability", "setting": "[5]; first compound 4 µM", "value": 0.274}, {"measurement": "relative viability", "setting": "[6]; first compound 0.04 µM", "value": 0.962}, {"measurement": "relative viability", "setting": "[6]; first compound 0.1265 µM", "value": 1.26}, {"measurement": "relative viability", "setting": "[6]; first compound 0.4 µM", "value": 0.821}, {"measurement": "relative viability", "setting": "[6]; first compound 1.265 µM", "value": 0.435}, {"measurement": "relative viability", "setting": "[6]; first compound 4 µM", "value": 0.287}, {"measurement": "relative viability", "setting": "[7]; first compound 0.04 µM", "value": 1.28}, {"measurement": "relative viability", "setting": "[7]; first compound 0.1265 µM", "value": 1.1}, {"measurement": "relative viability", "setting": "[7]; first compound 0.4 µM", "value": 0.976}, {"measurement": "relative viability", "setting": "[7]; first compound 1.265 µM", "value": 0.722}, {"measurement": "relative viability", "setting": "[7]; first compound 4 µM", "value": 0.646}, {"measurement": "relative viability", "setting": "[8]; first compound 0.04 µM", "value": 0.813}, {"measurement": "relative viability", "setting": "[8]; first compound 0.1265 µM", "value": 0.817}, {"measurement": "relative viability", "setting": "[8]; first compound 0.4 µM", "value": 0.814}, {"measurement": "relative viability", "setting": "[8]; first compound 1.265 µM", "value": 0.574}, {"measurement": "relative viability", "setting": "[8]; first compound 4 µM", "value": 0.351}, {"measurement": "relative viability", "setting": "[9]; first compound 0.04 µM", "value": 0.936}, {"measurement": "relative viability", "setting": "[9]; first compound 0.1265 µM", "value": 0.735}, {"measurement": "relative viability", "setting": "[9]; first compound 0.4 µM", "value": 0.779}, {"measurement": "relative viability", "setting": "[9]; first compound 1.265 µM", "value": 0.611}, {"measurement": "relative viability", "setting": "[9]; first compound 4 µM", "value": 0.356}, {"measurement": "relative viability", "setting": "[10]; first compound 0.04 µM", "value": 0.986}, {"measurement": "relative viability", "setting": "[10]; first compound 0.1265 µM", "value": 0.968}, {"measurement": "relative viability", "setting": "[10]; first compound 0.4 µM", "value": 0.903}, {"measurement": "relative viability", "setting": "[10]; first compound 1.265 µM", "value": 0.761}, {"measurement": "relative viability", "setting": "[10]; first compound 4 µM", "value": 0.34}, {"measurement": "relative viability", "setting": "[11]; first compound 0.04 µM", "value": 1.02}, {"measurement": "relative viability", "setting": "[11]; first compound 0.1265 µM", "value": 0.752}, {"measurement": "relative viability", "setting": "[11]; first compound 0.4 µM", "value": 0.862}, {"measurement": "relative viability", "setting": "[11]; first compound 1.265 µM", "value": 0.332}, {"measurement": "relative viability", "setting": "[11]; first compound 4 µM", "value": 0.374}, {"measurement": "relative viability", "setting": "[12]; first compound 0.04 µM", "value": 0.635}, {"measurement": "relative viability", "setting": "[12]; first compound 0.1265 µM", "value": 0.512}, {"measurement": "relative viability", "setting": "[12]; first compound 0.4 µM", "value": 0.391}, {"measurement": "relative viability", "setting": "[12]; first compound 1.265 µM", "value": 0.305}, {"measurement": "relative viability", "setting": "[12]; first compound 4 µM", "value": 0.352}, {"measurement": "relative viability", "setting": "[13]; first compound 0.04 µM", "value": 0.776}, {"measurement": "relative viability", "setting": "[13]; first compound 0.1265 µM", "value": 0.871}, {"measurement": "relative viability", "setting": "[13]; first compound 0.4 µM", "value": 0.797}, {"measurement": "relative viability", "setting": "[13]; first compound 1.265 µM", "value": 0.433}, {"measurement": "relative viability", "setting": "[13]; first compound 4 µM", "value": 0.468}, {"measurement": "relative viability", "setting": "[14]; first compound 0.04 µM", "value": 1.01}, {"measurement": "relative viability", "setting": "[14]; first compound 0.1265 µM", "value": 0.751}, {"measurement": "relative viability", "setting": "[14]; first compound 0.4 µM", "value": 0.805}, {"measurement": "relative viability", "setting": "[14]; first compound 1.265 µM", "value": 0.608}, {"measurement": "relative viability", "setting": "[14]; first compound 4 µM", "value": 0.456}, {"measurement": "relative viability", "setting": "[15]; first compound 0.04 µM", "value": 0.774}, {"measurement": "relative viability", "setting": "[15]; first compound 0.1265 µM", "value": 0.484}, {"measurement": "relative viability", "setting": "[15]; first compound 0.4 µM", "value": 0.579}, {"measurement": "relative viability", "setting": "[15]; first compound 1.265 µM", "value": 0.386}, {"measurement": "relative viability", "setting": "[15]; first compound 4 µM", "value": 0.306}, {"measurement": "relative viability", "setting": "[16]; first compound 0.04 µM", "value": 0.661}, {"measurement": "relative viability", "setting": "[16]; first compound 0.1265 µM", "value": 0.54}, {"measurement": "relative viability", "setting": "[16]; first compound 0.4 µM", "value": 0.278}, {"measurement": "relative viability", "setting": "[16]; first compound 1.265 µM", "value": 0.0494}, {"measurement": "relative viability", "setting": "[16]; first compound 4 µM", "value": 0.0357}, {"measurement": "relative viability", "setting": "[17]; first compound 0.04 µM", "value": 1.15}, {"measurement": "relative viability", "setting": "[17]; first compound 0.1265 µM", "value": 0.966}, {"measurement": "relative viability", "setting": "[17]; first compound 0.4 µM", "value": 1.08}, {"measurement": "relative viability", "setting": "[17]; first compound 1.265 µM", "value": 0.652}, {"measurement": "relative viability", "setting": "[17]; first compound 4 µM", "value": 0.383}, {"measurement": "relative viability", "setting": "[18]; first compound 0.04 µM", "value": 0.985}, {"measurement": "relative viability", "setting": "[18]; first compound 0.1265 µM", "value": 0.987}, {"measurement": "relative viability", "setting": "[18]; first compound 0.4 µM", "value": 1.01}, {"measurement": "relative viability", "setting": "[18]; first compound 1.265 µM", "value": 0.763}, {"measurement": "relative viability", "setting": "[18]; first compound 4 µM", "value": 0.709}, {"measurement": "relative viability", "setting": "[19]; first compound 0.04 µM", "value": 0.374}, {"measurement": "relative viability", "setting": "[19]; first compound 0.1265 µM", "value": 0.313}, {"measurement": "relative viability", "setting": "[19]; first compound 0.4 µM", "value": 0.343}, {"measurement": "relative viability", "setting": "[19]; first compound 1.265 µM", "value": 0.244}, {"measurement": "relative viability", "setting": "[19]; first compound 4 µM", "value": 0.234}, {"measurement": "relative viability", "setting": "[20]; first compound 0.04 µM", "value": 0.546}, {"measurement": "relative viability", "setting": "[20]; first compound 0.1265 µM", "value": 0.935}, {"measurement": "relative viability", "setting": "[20]; first compound 0.4 µM", "value": 0.874}, {"measurement": "relative viability", "setting": "[20]; first compound 1.265 µM", "value": 0.474}, {"measurement": "relative viability", "setting": "[20]; first compound 4 µM", "value": 0.462}]}]}
